Data from the supplement of paper PMC4932681.

Columns and labels:
Assay in all cases: viability inhibition at highest dose (% inhibition); higher = more growth inhibition
[1] = tested on: ZR-75-1; details: 72 h
Method: (§1)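 Percent inhibition of viability (CellTiter-Glo, 72 h) at the highest tested concentration (D5), normalised to DMSO (0%) and 100 µM benzethonium chloride (100%). Resistant lines and the 'in 1µM tamoxifen' arms were tested in 1 µM 4-OH-tamoxifen.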

[2] = tested on: ZR-75-1 Tam1; details: 4-OH-tamoxifen in medium 1 µM; 72 h
Method: as §1

[3] = tested on: T-47D Tam2; details: 4-OH-tamoxifen in medium 1 µM; 72 h
Method: as §1

[4] = tested on: T-47D Tam1; details: 4-OH-tamoxifen in medium 1 µM; 72 h
Method: as §1

[5] = tested on: MCF-7 Tam1; details: 4-OH-tamoxifen in medium 1 µM; 72 h
Method: as §1

[6] = tested on: BT-474 Tam1; details: 4-OH-tamoxifen in medium 1 µM; 72 h
Method: as §1

[7] = tested on: BT-474 Tam2; details: 4-OH-tamoxifen in medium 1 µM; 72 h
Method: as §1

[8] = tested on: ZR-75-1 Tam2; details: 4-OH-tamoxifen in medium 1 µM; 72 h
Method: as §1

[9] = tested on: BT-474; details: 72 h
Method: as §1

[10] = tested on: MCF-7; details: 72 h
Method: as §1

[11] = tested on: T-47D; details: 72 h
Method: as §1

Row | Structure (SMILES) | viability inhibition at highest dose ([1]; 4-OH-tamoxifen in medium 0 µM) | viability inhibition at highest dose ([1]; 4-OH-tamoxifen in medium 1 µM) | viability inhibition at highest dose [2] | viability inhibition at highest dose [3] | viability inhibition at highest dose [4] | viability inhibition at highest dose [5] | viability inhibition at highest dose [6] | viability inhibition at highest dose [7] | viability inhibition at highest dose [8] | viability inhibition at highest dose ([9]; 4-OH-tamoxifen in medium 0 µM) | viability inhibition at highest dose ([9]; 4-OH-tamoxifen in medium 1 µM) | viability inhibition at highest dose ([10]; 4-OH-tamoxifen in medium 0 µM) | viability inhibition at highest dose ([10]; 4-OH-tamoxifen in medium 1 µM) | viability inhibition at highest dose ([11]; 4-OH-tamoxifen in medium 0 µM) | viability inhibition at highest dose ([11]; 4-OH-tamoxifen in medium 1 µM)
1 | Cc1cc(Nc2cc(CN3CCOCC3)c3nc(C)c(Cc4ccc(Cl)cc4F)n3n2)n[nH]1 (drug 10000 nM) | -23.2 | 0.926 | -2.02 | 46.2 | 45.6 | 47.8 | 96.7 | 96.4 | 16.8 | 5.76 | 66.4 | 66.7 | 68 | 21.2 | 24.4
2 | Cn1cc(C2=Nc3cc(NC(=O)C(N)C4CCCCC4)cc4c3C2=CNNC4=O)cn1 (stereo not given) (drug 10000 nM) | 8.7 | -11.4 | -5.99 | 26.5 | 28.7 | 1.36 | 3.49 | -6.26 | -2.91 | 3.65 | -3.68 | 31 | 12.3 | 4.48 | 28.4
3 | Cc1c2oc3c(C)ccc(C(=O)N[C@@H]4C(=O)N[C@H](C(C)C)C(=O)N5CCC[C@H]5C(=O)N(C)CC(=O)N(C)[C@@H](C(C)C)C(=O)O[C@@H]4C)c3nc-2c(C(=O)N[C@@H]2C(=O)N[C@H](C(C)C)C(=O)N3CCC[C@H]3C(=O)N(C)CC(=O)N(C)[C@@H](C(C)C)C(=O)O[C@@H]2C)c(N)c1=O [Dactinomycin] (drug 1000 nM) | 45.4 | 53.8 | 55.6 | 62.7 | 63.4 | 61.6 | 95.6 | 88.4 | 60.9 | 36.7 | 81.9 | 74.5 | 72.2 | 49.2 | 31.5
4 | COc1nc(N)nc2c1ncn2[C@@H]1O[C@H](CO)[C@@H](O)[C@@H]1O [Nelarabine] (drug 10000 nM) | 11.1 | 4.17 | 1.44 | -4.97 | -2.1 | 4.67 | 0.136 | -6.72 | 2.19 | -2.92 | 16.3 | 13.2 | -6.84 | 1.79 | 6.8
5 | CNC(=O)c1cc(Oc2ccc(NC(=O)Nc3ccc(Cl)c(C(F)(F)F)c3)cc2)ccn1 [Sorafenib] (drug 1000 nM) | -7.83 | 4.52 | -2.44 | 4.98 | -11.3 | -2.56 | 12.1 | -4.18 | -2.71 | -8.19 | -5.87 | 4.04 | 5.41 | -13.3 | -7.58
6 | NCCCNCCSP(=O)(O)O [Amifostine] (drug 10000 nM) | -8.06 | -7.66 | 1.78 | 7 | -2.35 | -11.7 | -0.954 | -1.33 | -10.8 | -2.99 | 1.56 | -14.2 | -5.03 | -8.52 | -1.52
7 | Nc1ncn([C@@H]2O[C@H](CO)[C@@H](O)[C@H]2O)c(=O)n1 [Azacitidine] (drug 10000 nM) | 11.2 | 0.709 | 11.9 | 21 | 23.6 | 1.85 | 1.3 | 17.2 | 7.49 | 11.1 | 12.4 | 31.9 | -0.966 | 16.3 | -5.14
8 | COc1ccc(S(=O)(=O)Nc2cccnc2Nc2ccc(O)cc2)cc1 [ABT-751] (drug 10000 nM) | 36.3 | 14.9 | 4.33 | 38.3 | 58.6 | 1.63 | 64.7 | 54.2 | 18.6 | 42.6 | 73.1 | 50.3 | 44.6 | -0.891 | 2.69
9 | COc1cc2nccc(Oc3ccc(NC(=O)Nc4cc(C)on4)c(Cl)c3)c2cc1OC [Tivozanib  (AV-951)] (drug 10000 nM) | 13.6 | 4.79 | 3.78 | 22.1 | 23.7 | 13.2 | 71.8 | 43.4 | 11.2 | 31.9 | 75.6 | 24.5 | 23.7 | 22.3 | 19.7
10 | CC(C)Cn1cnc2c(N)nc3ccccc3c21 [Imiquimod] (drug 10000 nM) | 0.432 | 2.78 | -4.93 | 15.3 | 8.8 | 5.29 | 8.22 | 11.8 | -8.03 | 9.75 | 18.4 | -14.1 | 15.9 | 16.1 | 10.4
11 | C[C@]12C=CC(=O)C=C1CC[C@@H]1[C@@H]2C(=O)C[C@@]2(C)[C@H]1CC[C@]2(O)C(=O)CO [Prednisone] (drug 10000 nM) | -12.2 | -9.15 | -0.823 | 6.96 | 0.12 | -6.7 | 0.805 | -4.01 | 5.99 | -5.13 | -15.9 | 4.17 | -2.57 | -2.36 | -14.5
12 | CC1(C)NC(=O)N(c2ccc([N+](=O)[O-])c(C(F)(F)F)c2)C1=O [Nilutamide] (drug 10000 nM) | -16.5 | -4.81 | 2.7 | 6 | 0.496 | -1.08 | -0.747 | 10.7 | 4.62 | -2.3 | -13.3 | -15.4 | 15.9 | -3.55 | -11.8
13 | C/C(=C\c1csc(C)n1)[C@@H]1C[C@@H]2O[C@]2(C)CCC[C@H](C)[C@H](O)[C@@H](C)C(=O)C(C)(C)[C@@H](O)CC(=O)O1 [Patupilone  (Epothilone B)] (drug 1000 nM) | 8.28 | -8.45 | 1.36 | 33.4 | 22 | -9.25 | 38.2 | 28 | 1.47 | 49.2 | 56.4 | 24.1 | 21.5 | 38.1 | 8.65
14 | C=CC[C@@H]1/C=C(\C)C[C@H](C)C[C@H](OC)[C@H]2O[C@@](O)(C(=O)C(=O)N3CCCC[C@H]3C(=O)O[C@H](/C(C)=C/[C@@H]3CC[C@@H](O)[C@H](OC)C3)[C@H](C)[C@@H](O)CC1=O)[C@H](C)C[C@@H]2OC [Tacrolimus (FK 506)] (drug 10000 nM) | -3.64 | 16 | 15.5 | 23.9 | 27.2 | 18.8 | 46.6 | 35 | 11.5 | 8.63 | 39.4 | 25.3 | 37.4 | 5.71 | 3.68
15 | CC(C)c1c(C(=O)Nc2ccccc2)c(-c2ccccc2)c(-c2ccc(F)cc2)n1CC[C@@H](O)C[C@@H](O)CC(=O)O [Atorvastatin] (drug 10000 nM) | 48.4 | 36.5 | 44.5 | 18.7 | 29.2 | 13.7 | 12.4 | 28.2 | 39.9 | 13.8 | 7.75 | 23.9 | 19.8 | 35.6 | 36.5
16 | CNCc1ccc(-c2[nH]c3cc(F)cc4c3c2CCNC4=O)cc1 (drug 10000 nM) | -4.71 | -4.07 | -4.62 | 6.84 | 1.19 | -2.56 | 2.87 | -16.6 | 0.703 | -3.44 | -1.93 | 6.6 | 1.15 | -7.27 | -9.52
17 | COCC[n+]1c2c(n(Cc3cnccn3)c1C)C(=O)c1ccccc1C2=O [YM155] (drug 10000 nM) | 96 | 98 | 99.6 | 94.1 | 96.1 | 98.9 | 99.4 | 98.6 | 95.8 | 99 | 100 | 99.8 | 99.1 | 98.1 | 98.6
18 | CC(=O)OC[C@H]1O[C@@H]([S-])[C@H](OC(C)=O)[C@@H](OC(C)=O)[C@@H]1OC(C)=O.CCP(CC)CC.[Au+] [Auranofin] (drug 2500 nM) | 15.9 | 25.5 | 20.7 | 59.3 | 54.3 | 22.4 | 96 | 66.5 | 12.5 | 58 | 97.5 | 91.7 | 33.9 | 31 | 36
19 | CCC1(c2ccc(N)cc2)CCC(=O)NC1=O (stereo not given) [Aminoglutethimide] (drug 10000 nM) | 6.41 | 10.3 | 9.59 | 4.12 | 4.05 | 6.51 | 12.8 | -1.52 | 8.94 | -3.67 | 20 | -3.88 | 8.64 | -3.76 | 5.9
20 | C#Cc1cccc(Nc2ncnc3cc(OCCOC)c(OCCOC)cc23)c1 [Erlotinib] (drug 10000 nM) | 3.58 | 12.2 | 14.6 | 40 | 39.8 | 12.5 | 94.4 | 87.1 | 10.9 | 43 | 94.5 | 4.3 | 0.353 | 20.8 | 9
21 | CCCC(CCC)C(=O)O [Valproic acid] (drug 10000 nM) | -14.3 | 1.2 | 3.1 | 24.2 | 1.44 | 1.78 | 4.24 | -2.85 | -3.03 | -9.64 | -2.48 | -31.2 | -5.39 | -15.5 | 12.5
22 | O=C(O)CCCc1ccc(N(CCCl)CCCl)cc1 [Chlorambucil] (drug 10000 nM) | -4.67 | -2.49 | 3.96 | 9.69 | -7.66 | -8.39 | -1.33 | -11.1 | -11.1 | -5.56 | -5.81 | 2.18 | -4.5 | -20.9 | 1.91
